According to EP4100520B1, “SYSTEM AND METHOD OF TR[…] STATES INFORMATION, […] MACR[…]” (Beznosiuk, Jaroslaw, priority 2020, dated 2021):

Assays:
enolase = target: T1, enolase (Homo sapiens, UniProt P13929); assay: Electrophoresis to detect high molecular weight advanced glycation products (AGE) of enolase; conditions: 3 h glycation
T1 construct: Enolase was isolated from human muscle tissue using own method; from tissue; host or cells: human muscle tissue
Method: The glycation process was interrupted after 3 hours by adding an aqueous solution of lysine at a concentration of 4 mg/ml to methylglyoxal samples (excess lysine bound unreacted methylglyoxal).
In order to detect the presence of high molecular weight products of advanced glycation of enolase (AGE), samples of each mixture were electrophoresized. Electrophoresis conditions according to [Pietkiewicz J. et al., 2011, Protein J. 30 (3):149-158]. 12 ug of protein from the analyzed samples was applied to the gel paths.

human muscle enolase = target: T2, human muscle enolase (Homo sapiens, UniProt P13929); assay: Enolase glycation with methylglyoxal: specific activity of enolase (absorbance increase at 240 nm, 2-PGA to PEP); assay type: biochemical; conditions: for K(1)i / K(1)0 / K(1)i / K(2)i: K1, without entanglement elements; for K(1)i / K(1)0 / Wi / W0: activity relative to own initial value; for Wi / W0 / Wi / K(2)i: W, with entanglement elements
T2 construct: Enolase was isolated from human muscle tissue using own method; from tissue; host or cells: human muscle tissue
T2 sequence (P13929 whole entry): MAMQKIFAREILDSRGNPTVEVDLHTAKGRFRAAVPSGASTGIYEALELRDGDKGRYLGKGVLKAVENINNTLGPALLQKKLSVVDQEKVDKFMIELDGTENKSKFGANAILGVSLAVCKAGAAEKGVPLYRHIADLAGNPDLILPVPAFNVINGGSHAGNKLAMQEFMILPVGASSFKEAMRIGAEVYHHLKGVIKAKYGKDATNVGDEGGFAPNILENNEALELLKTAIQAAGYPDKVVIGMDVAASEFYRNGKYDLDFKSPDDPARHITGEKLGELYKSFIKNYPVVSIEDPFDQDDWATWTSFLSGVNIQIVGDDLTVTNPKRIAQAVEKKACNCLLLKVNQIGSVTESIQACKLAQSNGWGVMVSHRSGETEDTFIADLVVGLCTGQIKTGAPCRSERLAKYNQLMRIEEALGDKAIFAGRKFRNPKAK
Method: Methylglyoxal was chosen as an enolase modifying agent because it is formed in the body mainly as a product of defective glycolysis or in the lipid peroxidation process, as well as a result of disorders of defence systems against carbonyl and oxidative stress. Simultaneously, enolase glycation was performed without exposure to the second entanglement elements 9, 9a of the second and third pair of entanglement elements. The second control was a sample of enolase that was not glycated and not treated with the second entanglement elements 9, 9a of the second and third pair of entanglement elements.
The second entanglement elements 9, 9a of the second and third pair of entanglement elements were aluminium plates, 1 cm by 2 cm in size, which were kept for 30 min at room temperature prior to testing. Enolase was isolated from human muscle tissue using own method (Bednarz-Misa I, Pietkiewicz J, et al., 2009. Adv.Clin.Exp.Med. Vol.18 no.1; p.71-78). The enzyme stock solution was a preparation of 7.5 mM of imidazole-HCl, pH 6.8, in stabilizing buffer, containing 2.5 mM of MgSO4, 50 mM of NaCl, 50% of glycerol (formulation stored at 4°C). The concentration of enolase in the stock solution Ro was 8 mg/ml (87 µM), while the enzyme specific activity was 25 IU/mg. In glycation mixtures, the enzyme concentration was 1 mg/ml (Ro diluted 8x with PBS buffer, pH 7.4).
In the experiment, a standard test buffer of 50 mM imidazole-HCl pH 6.8.3 mM MgSO4, 0.4M KCI and a substrate of 2-PGA (sodium salt) dissolved in H2O - a stock solution R0 at a concentration of 58.5 mM was used. 2-PGA in the enzyme assay was used at a standard concentration of 1 mM.
Protein concentration was determined spectrophotometrically by measuring the absorbance of enolase solution at 280 nm wavelength using quartz cuvettes. In the present system, quartz cuvettes constituted the end tanks 10 made of polar dielectric 5. Enolase activity was determined by monitoring in a Jasco UV-Vis V-530 spectrophotometer within 60 seconds, the increase in absorbance of the test solution at 240 nm wavelength (a measure of reaction product production, PEP). The specific activity of the enzyme was expressed in international units relative to 1 mg of protein (Bednarz-Misa I, Pietkiewicz J, et al., 2009. Adv.Clin.Exp.Med. 18(1);71-78).
Two glycation systems were prepared using a large excess of methylglyoxal in relation to enolase (ratio 1:300 mol:mol) - in accordance with the conditions according to [Pietkiewicz J. et al., 2011, Protein J. 30 (3):149-158]: • a) Substantive test: glycation of enolase treated with second entanglement elements 9, 9a of the second and third pair of entanglement elements.
175 µl of PBS pH 7.4 buffer were placed in the quartz cuvette, 20 µl of enolase stock solution and 5.5 µl of 0.8% aqueous methylglyoxal solution were added. In such a system, the effect of quantum information transmitted from source medium 2 (silicon monocrystal) on the modification of the glycolysis/gluconeogenesis enzyme enolase by methylglyoxal as a reactive glycating agent was studied.
In order to transmit quantum information from the source medium 2, the mixture was subjected for 3 hours to two second entanglement elements 9, 9a of the second and third pair of entanglement elements (which adhered to both sides of the cuvette). The system was kept at room temperature. b) Control test 1: glycation of enolase not treated with second entanglement elements 9, 9a of the second and third pairs of entanglement elements.
The reaction system was prepared as a substantive test (a). Incubation at room temperature occurred at the same time, without contact with the second entanglement elements 9, 9a of the second and third pair of entanglement elements (3 m distance from the substantive test). c) Control test 2: Unmodified enolase, not treated with second entanglement elements 9, 9a of the second and third pair of entanglement elements. […]

[1] = relative to unmodified enolase control K2 at same time, 1 h
[2] = relative to unmodified enolase control K2 at same time, 2 h
[3] = relative to unmodified enolase control K2 at same time, 3 h

T1 sequence (P13929 whole entry): as above

In the case of `CC(=O)C=O` [methylglyoxal], the “AGE of Mw 180 and Mw 230 kDa” value (enolase; control test, glycation in the absence of entanglement elements (path 2, fig. 6)) is reported as “observed”, the “AGE of Mw 180 and Mw 230 kDa” value (enolase; substantive test treated with entanglement elements (path 1, fig. 6)) is reported as “observed” and the Activity (human muscle enolase; Control test 1 (K1): enolase + methylglyoxal (1:300 mol:mol), without entanglement elements, incubation time 0 h, room temperature) is reported as 24.6 IU/mg. For the same molecule, the Activity (human muscle enolase; Control test 1 (K1): enolase + methylglyoxal, without entanglement elements, incubation time 1 h) was 21.37 IU/mg, the Activity (human muscle enolase; Control test 1 (K1): enolase + methylglyoxal, without entanglement elements, incubation time 2 h) was 19.15 IU/mg and the Activity (human muscle enolase; Control test 1 (K1): enolase + methylglyoxal, without entanglement elements, incubation time 3 h) was 17.64 IU/mg. For the same molecule, the “K(1)i / K(1)0” value (human muscle enolase; 0 h) was 100%, the “K(1)i / K(1)0” value (human muscle enolase; 1 h) was 86.9% and the “K(1)i / K(1)0” value (human muscle enolase; 2 h) was 77.85%. For the same molecule, the “K(1)i / K(1)0” value (human muscle enolase; 3 h) was 71.7%, the “K(1)i / K(2)i” value (human muscle enolase; activity relative to unmodified enolase control K2 at same time, 0 h) was 99.6% and the “K(1)i / K(2)i” value (human muscle enolase; [1]) was 93.8%. The “K(1)i / K(2)i” value (human muscle enolase; [2]) was 88.8%, the “K(1)i / K(2)i” value (human muscle enolase; [3]) was 90.6% and the Activity (human muscle enolase; Substantive test (W): enolase + methylglyoxal + entanglement elements, incubation time 0 h, room temperature) was 29.22 IU/mg. For the same molecule, the Activity (human muscle enolase; Substantive test (W): enolase + methylglyoxal + entanglement elements, incubation time 1 h) was 25.78 IU/mg, the Activity (human muscle enolase; Substantive test (W): enolase + methylglyoxal + entanglement elements, incubation time 2 h) was 24.12 IU/mg and the Activity (human muscle enolase; Substantive test (W): enolase + methylglyoxal + entanglement elements, incubation time 3 h) was 23.4 IU/mg. For the same molecule, the “Wi / W0” value (human muscle enolase; 0 h) was 100%, the “Wi / W0” value (human muscle enolase; 1 h) was 88.2% and the “Wi / W0” value (human muscle enolase; 2 h) was 82.5%. For the same molecule, the “Wi / W0” value (human muscle enolase; 3 h) was 80.1%, the “Wi / K(2)i” value (human muscle enolase; relative to unmodified enolase control K2 at same time, 0 h) was 118.3% and the “Wi / K(2)i” value (human muscle enolase; [1]) was 113.2%. For the same molecule, the “Wi / K(2)i” value (human muscle enolase; [2]) was 117.3%, the “Wi / K(2)i” value (human muscle enolase; [3]) was 120.1% and the “activity of the glycated enzyme relative to unmodified control test” value (human muscle enolase; in the presence of entanglement elements, throughout the experiment (0-3 h)) was 113%-120. The “decrease in specific activity” value (human muscle enolase; sample K1, after 3 hours of glycation, without entanglement elements) was “approx. 28%”.
